Experimental data published in patent US6627732B1, “Glutathione derivatives and their dosage forms” (Teijin Limited, priority 1998, dated 2003).

Columns and labels:
[1] = system: rat models of suppressed hematopoietic function by 5-FU administration; experiment: Recovery of neutrophil counts in rat models of suppressed hematopoietic function by 5-FU (Example 26); format: in vivo; settings: 5-FU rats, days 2-10
Text: Regarding the effect of promoting the recovery of neutrophil counts in rat models of suppressed hematopoietic function by 5-fuluorouracil administration, statistical significance was compared to the control group to compare the pharmaceutical composition containing Example 4 of the present invention as an active ingredient with the pharmaceutical composition of the conventional technology of Comparative Example 1 and granulocyte colony-stimulating factor (G-CSF).
(1) Animals used and the keeping condition: Male SD rats, 6-week old, purchased from Nippon SLC were used. The animal feed (manufactured by Oriental Yeast Co., Ltd.) and drinking water (well water treated with 0.4±0.2 ppm hypochlorous acid) were given ad libitum during the period of the experiment. The animals were housed in a hanging-type rat cage (manufactured by Nippon Cage K.K.) and kept at a temperature of 24±2° C. and a humidity of 55±5%.
(2) Creation of rat models of suppressed hematopoietic function by 5-FU administration; Creation of rat models of suppressed hematopoietic function by 5-FU (Kyowa Hakko Kogyo Co. Ltd.) administration was carried out based on the method of Akamatsu et al. (Yakuri to Chiryo(Pharmacology and Therapy), 18. (Suppl. 9), 317-356 (1990)). Thus, on the first day of the experiment, 5-FU at 50 mg/kg-body weight (dosage volume is 1 ml/kg-body weight) or the same amount of physiological saline (manufactured by Fuso Pharmaceuticals Industries, Ltd.) was intraperitoneally administered to the rats described in (1). On days 4, and 7-12, blood was drawn from the jugular vein and the EDTA-2K-treated blood was obtained. The blood was used to determine the neutrophil count using a general chemistry test instrument (Technicon H-1E, manufactured by Bayer-Sankyo K.K.) and the ratio of reticulocytes using a reticulocyte determination instrument (EPICS, XL-MCL, manufactured by Coulter K.K.). Blood was also drawn on day 1 of the experiment, and the values determined for the blood were used as the pre-administration values.
In the physiological saline administration group, no changes in neutrophil count were observed throughout the experiment period, whereas in the 5-FU administration group there was a reduction in neutrophil count with the lowest value observed on day 8 of the experiment, and the neutrophil count was recovered to the value before 5-FU administration or higher on day 10 of the experiment or after. The above results confirmed that rat models of suppressed hematopoietic function can be created by a single intraperitoneal administration of 5-FU at 50 mg/kg-body weight.
(3) Evaluation of Example 4 and Comparative Example 1 in the above model; To the model described in (2), the glutathione derivative of Example 4 combined with the fat emulsion at 10 to 30 mg/kg-body weight/day or the glutathione derivative of Comparative Example 1 dissolved in a physiological saline containing 2.5% hydroxypropyl-β-cyclodextrin at 50 mg/kg-body weight/day was repeatedly administered into the tail vein for 9 days from day 2 to 10 of the experiment. The recombinant human G-CSF formulation (hereinafter referred to as G-CSF, manufactured by Chugai Pharmaceutical Co., Ltd.) as the positive control at 10 μg/kg-body weight/day and the empty fat emulsion as the negative control were administered in a similar manner. […]

[2] = system: rabbit models of suppressed hematopoietic function by CP administration; experiment: Recovery of neutrophil counts in rabbit models of suppressed hematopoietic function by cyclophosphamide (Example 29); format: in vivo; settings: CP rabbits; 20 mg/kg-body weight/day, days 3 to 7; Example 4 in fat emulsion, Comparative Example 1 in HPCD solution
Text: Regarding the effect of promoting the recovery of neutrophil counts in rabbit models of suppressed hematopoietic function by cyclophosphamide (hereinafter referred to as CP) administration, the pharmaceutical composition comprising the fat emulsion containing the glutathione derivative of Example 4 of the present invention and the pharmaceutical composition of the conventional technology of Comparative Example 1 were compared.
(1) Animals used and the keeping condition: Male Japanese white rabbits, 17-week old, (Kbl:JW) purchased from Kitayama Labes Co., Ltd. were used. The animal feed (LRC4, manufactured by Oriental Yeast Co., Ltd.) and drinking water (well water treated with 0.4±0.2 ppm hypochlorous acid) were given ad libitum during the period of the experiment. The animals were each housed in a hanging-type rat cage (manufactured by Nippon Cage K.K.) and kept at a temperature of 24±2° C. and a humidity of 55±5%.
(2) Creation of rabbit models of suppressed hematopoietic function by CP administration; CP (manufactured by Wako Pure Chemicals Industries, Ltd.) was intravenously administered at 60 mg/kg-body weight/day (dosage volume was 2 ml/kg-body weight) to rabbits described in (1) on day 1 and 2 of the experiment. […] Blood was also drawn before the administration on day 1 of the experiment, and the value determined for the blood was used as the pre-administration value. […]

[3] = system: rabbit liver esterase; experiment: Decomposition of glutathione derivatives by rabbit liver esterase (physiological stability); format: in vitro ADME; settings: BSA/D-PBS pH 7.4, 196-244 μg/ml
Description: (1) Bovine serum albumin (hereinafter referred to as BSA), Dulbecco's phosphate buffered saline (hereinafter referred to as D-PBS), swine liver esterase, and rabbit liver esterase were purchased from Sigma, 6-week old male SD rats were purchased from Nippon SLC, and 12-week old or older male Japanese white rabbits were purchased from Ichikawaya. On the day of the incubation experiment described below, blood was drawn from the animals in the presence of heparin, and plasma was separated therefrom for use. Human plasma was obtained from normal healthy males after obtaining their consent.
(2) The glutathione derivatives described in the Examples and Comparative Examples of the present invention were incubated for a fixed time in an enzyme solution having the following composition. Acetonitrile was added to the reaction mixture to inactivate the enzyme thereby to stop the reaction. The concentration of the glutathione derivatives in the deproteinized supernatant was measured by HPLC. For each time point of the esterase enzyme experiment, the mean values from two measurement or more were determined, and for the rats and rabbits the mean values of plasma samples from three individuals were determined. For some of the experiment data, changes with time of percentages relative to initial concentration of the glutathione derivative are shown in FIGS. 2 to 4.
Swine liver esterase and rabbit liver esterase experiment
30 mg-BSA/ml-D-PBS (pH 7.4): 36 to 45 parts
Swine or rabbit liver esterase/D-PBS: 4-5 parts
10 mg-glutathione derivative/ml-ethanol: one part (the final concentration in the reaction mixture is 196-244 μg/ml)

Decomposition rate constant by rabbit liver esterase [3] | SMILES | Neutrophil counts relative to the negative control group ([1]; HPCD solution 50 mg/kg-body weight/day iv, significant (5%) on day 12 only) | Neutrophil counts compared to the negative control group [2] | Neutrophil counts relative to the negative control group ([1]; fat emulsion 10 mg/kg-body weight/day iv) | Neutrophil counts relative to the negative control group ([1]; fat emulsion 20 mg/kg-body weight/day iv, days 9 to 11, significance 1% to 0.1%) | Neutrophil counts relative to the negative control group ([1]; fat emulsion 30 mg/kg-body weight/day iv, from day 8, significance 5%-0.1%)
– | CCOC(=O)[C@@H](N)CCC(=O)N[C@@H](CSCc1ccccc1)C(=O)N[C@@H](C(=O)OCC)c1ccccc1.Cl [Comparative Example 1, Glu(Cys(Bzl)-D-Phg-O(Et))-O(Et)hydrochloride, reference compound] | no changes were observed compared to the negative control group | no changes were observed | – | – | –
267 10^−4/unit/min | CCCCCCCCOC(=O)[C@H](NC(=O)[C@H](CSCc1ccccc1)NC(=O)CC[C@H](N)C(=O)OCC)c1ccccc1.Cl [Comparative Example 2, Glu(Cys(Bzl)-D-Phg-O(Octyl))-O(Et)hydrochloride, reference compound] | – | – | – | – | –
0.836 10^−4/unit/min | CCCCCCCCCCCCCCCCOC(=O)[C@@H](N)CCC(=O)N[C@@H](CSCc1ccccc1)C(=O)N[C@@H](C(=O)OCC)c1ccccc1.Cl [Example 4, Glu(Cys(Bzl)-D-Phg-OEt)-O(Hexadecyl)hydrochloride] | – | statistically significant increase in neutrophil counts | No changes were observed | statistically significant increase | statistically significant increase
